Results taken from patent publication US11953435B2, “Zinc-responsive fluorophores” (Northwestern University, priority 2019, dated 2024).
Entries after “also recorded” stand apart in the source; their conditions may differ. Where two headings read alike, the source gives them in different places.

Columns and labels:
[1] = cited from earlier work; for Brightness (ε*Φ/1000) / Extinction Coefficient (ε) / Quantum Yield (Φ) / λAbs (max) / λEm (max): values reported in Que et al.
[2] = tested on: MII egg; assay: Confocal imaging of zinc in live MII eggs; format: cell-based, mouse
From the text: [formula] [formula] [formula] where r(t) is the anisotropy, P(t) is the polarization, Ivv and Ivh are intensities with polarization in the vertical plane and the excitation in the vertical and horizontal planes respectively, Ihv and Ihh are intensities with polarization in the horizontal plane and the excitation in the vertical and horizontal planes respectively, and G is a g-factor that corrects for instrument sensitivity in the horizontal and vertical planes. Metal content of NMR samples. Inductively coupled plasma mass spectrometry (ICP-MS) was performed on a Thermo iCAP Q ICP-MS. 1 mg/mL of ZincBY-1 or ZincBY-4 in acetonitrile-d3 or acetonitrile-d3 only was evaporated overnight at 70° C. 150 μL of HNO3 was added and the samples were digested overnight at 70° C. Samples were diluted to a final nitric acid concentration of 3%. ICP-MS was operated in collision cell mode to reduce polyatomic interferences. An internal standard comprising ^7Li, ^89Y, and ^115In was used. Each sample was acquired using one survey run (10 sweeps) and three main (peak jumping) runs (100 sweeps). Data was fit to a standard curve using a standard containing ^45Sc, […], ^51V, ^52Cr, ^55Mn, ^56Fe, ^59Co, ^58Ni, ^63Cu, and ^64Zn from 5 ppb to 1000 ppb. Only ^56Fe and ^64Zn were detected in the samples above background levels. Computational Analysis of ZincBY-1 and ZincBY-4. All density functional theory (DFT) calculations were performed using version 4.0.1 of the ORCA electronic structure package (Ref. B6; incorporated by reference in its entirety). Guided by the results of earlier studies on BODIPY derivatives (Ref. B7; incorporated by reference in its entirety), the PBE0 functional (Refs. B8-B10; incorporated by reference in their entireties) was used to optimize the geometries of all molecules studied, while time dependent DFT (TD-DFT) calculations and charge analysis through the CHarges from ELectrostatic Potentials using a Grid-based method (CHELPG) (Ref. B11; incorporated by reference in its entirety) were performed with the oB97-XD3 functional (Ref. B12; incorporated by reference in its entirety). All calculations utilized the def2-TZVP basis set (Ref B13; incorporated by reference in its entirety) with the resolution of the identity approximation coupled with the chain of spheres exchange method (RIJCOSX) (Refs. B14-B16; incorporated by reference in their entireties), using the def2/J auxiliary basis (Ref B17; incorporated by reference in its entirety). Implicit solvation effects were included through the conductor like polarizable continuum model (CPCM) (Ref B18; incorporated by reference in its entirety). Calculated spectra were broadened by Gaussians of width 0.2 eV, and red shifted by 0.64 eV to better match the experimental spectra per Momeni and Brown (Ref. B7; incorporated by reference in its entirety). Animals and Egg Collection Mouse. To collect MII-arrested eggs, female mice of at least 5 weeks in age were injected with 5 IU pregnant mare serum gonadotropin (PMSG) followed by 5 IU human chorionic gonadotropin (hCG) 48 hours later. Intact cumulus-oocyte complexes (COCs) were isolated from the oviducts 15 hours after the administration of hCG. Cumulus cells were denuded using 0.3% (w/v) hyaluronidase. Animals were treated in accordance with the US National Institutes of Health Guide for the Care and Use of Laboratory Animals. Food and water were given ad libitum. The Northwestern University Institutional Animal Care and Use Committee approved all the protocols. C. Elegans. Wildtype strain Bristol N2 was used as a control strain in fluorescence microscopy experiments. EU1067: unc-119(ed3) ruIs32[unc-119(+) pie-1^promoter::GFP::H2B] III; ruIs57[unc-119(+) pie-P1^promoter:GFP::tubulin] was used as a marker for cortical granules in fluorescence microscopy experiments. EU1067 was provided by the Caenorhabditis Genetics Center (CGC). […]

SMILES	Brightness (ε*Φ/1000) ([1]; Apo)	Extinction Coefficient (ε) ([1]; Apo)	Quantum Yield (Φ) ([1]; Apo)	λAbs (max) ([1]; Apo) [nm]	λEm (max) ([1]; Apo) [nm]	Brightness (ε*Φ/1000) ([1]; Zn-bound)	Extinction Coefficient (ε) ([1]; Zn-bound)	Quantum Yield (Φ) ([1]; Zn-bound)	λAbs (max) ([1]; Zn-bound) [nm]	λEm (max) ([1]; Zn-bound) [nm]	Stokes shift ([1]; literature (Ref. A18)) [nm]	excitation at 488 nm in the MII egg ([2]; 50 nM probe)	excitation at 552 nm in the MII egg ([2]; 50 nM probe)	region of fluorescence emission in MII eggs ([2]; 50 nM probe, 488 nm excitation)	effect of TPEN on fluorescence in stained MII eggs ([2]; TPEN 5 μM)	spectral overlap with TubulinTracker Green in the MII egg ([2]; single excitation at 488 nm)	fluorescence change on chemical activation (ionomycin) of MII eggs ([2]; time lapse imaging, ionomycin 5 μM)	usable working concentration ([2]; where other probes require micromolar amounts) [nM]	Stokes shift in cells ([2]; within cells) [nm]
COc1ccc2n1[B-](F)(F)[N+]1=C(N(CCN(Cc3ccccn3)Cc3ccccn3)Cc3ccccn3)C=CC1=C2c1c(C)cc(C)cc1C [ZincBY-1, reference compound]	0.57(6) M^−1cm^−1	1.1(0.05) × 10^4 M^−1cm^−1	0.052(3)	533	560	2.6(5) M^−1cm^−1	2.0(3) × 10^4 M^−1cm^−1	0.13(2)	533	543	11	Only ZincBY-4 was readily excited at 488 nm	both probes were excitable at 552 nm	–	–	–	–	–	–
CC(=O)NCCOc1ccc2n1[B-](F)(F)[N+]1=C(N(CCN(Cc3ccccn3)Cc3ccccn3)Cc3ccccn3)C=CC1=C2c1c(C)cc(C)cc1C [ZincBY-4, N-(2-((7-((2-(bis(pyridin-2-ylmethyl)amino)ethyl)(pyridin-2-ylmethyl)amino)-5,5-difluoro-10-mesityl-5H-5λ4,6λ4-dipyrrolo[1,2-c:2′,1′-f][1,3,2]diazaborinin-3-yl)oxy)ethyl)acetamide]	–	–	–	–	–	–	–	–	–	–	–	only ZincBY-4 exhibits a strong fluorescence intensity upon excitation at 488 nm; also recorded: Only ZincBY-4 was readily excited at 488 nm	both probes were excitable at 552 nm	575-750 nm	loss of fluorescence signal in the vesicle region; also recorded: loss in fluorescence was observed	virtually no ZincBY-4 emission detected in the 495-530 nm emission channel; also recorded: virtually no spectral overlap between the two probes	increase in fluorescence intensity outside the egg while fluorescence intensity is lost in the periphery region; also recorded: both loss of zinc from the zinc granule region and increase of zinc outside the cell without the need of a second probe was observed	50	~100
